Assay results published in US10633407B2, “14-membered ketolides and methods of their preparation and use” (President and Fellows of Harvard College, priority 2014, dated 2020).
≈ marks a conversion by molar mass, not a printed value.

Tests used:
Test in all cases: CLSI broth dilution MIC determination
Format in all cases: cell-based
E. coli ATCC 25922 = details: Escherichia coli, ATCC25922, E. coli ATCC 25922 (MP-4); read-out: MIC
Summary of the method: (§1)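 The lowest inhibitory concentration was found by broth dilution done to CLSI standards. Resistance genotypes on the panel can be constitutive or inducible, and azithromycin and solithromycin accompany many tests as reference macrolides.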

[1] = tested on: E. coli MP-532 clinical-cErmB; details: Escherichia coli
Summary of the method: as §1

E. coli MP-541 clinical = details: Escherichia coli, MP541CLINICAL, read-out: MIC
Summary of the method: as §1

[2] = tested on: E. coli MP-9 ATCC25922:tolC; details: Escherichia coli, ATCC25922
Summary of the method: as §1

[3] = tested on: S. aureus (MRSA) MP-513 ST-228 cErm (Clinical-cErm); details: Staphylococcus aureus, read-out: MIC
Summary of the method: as §1

S. aureus ATCC 29213 = details: Staphylococcus aureus, ATCC29213; S. aureus ATCC 29213 (MP-12); read-out: MIC
Summary of the method: as §1

[4] = tested on: S. aureus MP-17 ATCCBAA-977 (BAA 977 iErm); details: Staphylococcus aureus; S. aureus MP-17, ATCCBAA-977, iErm; read-out: MIC
Summary of the method: as §1

S. aureus MRSA: USA100 = details: Staphylococcus aureus; S. aureus MRSA: USA100 (MP-618 UNT-096); read-out: MIC
Summary of the method: as §1

S. aureus MRSA: USA300 = details: Staphylococcus aureus; S. aureus MRSA: USA300 (MP-549, msr(a)); read-out: MIC
Summary of the method: as §1

S. aureus USA600, GISA = details: Staphylococcus aureus; S. aureus USA600, GISA (MP-619 UNT-120); read-out: MIC
Summary of the method: as §1

S. aureus erm A genotype = details: Staphylococcus aureus; S. aureus erm A genotype (MP-620 UNT-146); read-out: MIC
Summary of the method: as §1

S. pneumoniae ATCC 49619 = details: Streptococcus pneumoniae, ATCC49619, S. pneumoniae ATCC 49619 (MP-21); read-out: MIC
Summary of the method: as §1

[5] = tested on: S. pneumoniae mef A genotype (first strain so labelled); details: Streptococcus pneumoniae, first strain (MP-626 UNT-038)
Summary of the method: as §1

[6] = tested on: S. pneumoniae mef A genotype (second strain so labelled); details: Streptococcus pneumoniae, second strain (MP-627 UNT-039), read-out: MIC
Summary of the method: as §1

S. pyogenes ATCC 19615 = details: Streptococcus pyogenes, ATCC19615, S. pyogenes ATCC 19615 (MP-19); read-out: MIC
[7] = tested on: S. pyogenes Macrolide-resistant; details: Streptococcus pyogenes, S. pyogenes Macrolide-resistant (MP-625 UNT-014); read-out: MIC
E. faecalis ATCC 29212 = details: Enterococcus faecalis, ATCC29212, E. faecalis ATCC 29212 (MP-24); read-out: MIC
[8] = tested on: E. faecalis Vancomycin-resistant; details: Enterococcus faecalis, E. faecalis Vancomycin-resistant (UNT-039); read-out: MIC
A. baumannii ATCC 19606 = details: Acinetobacter baumannii, ATCC19606; A. baumannii ATCC 19606 (MP-15); read-out: MIC
K. pneumoniae ATCC 10031 = details: Klebsiella pneumoniae, ATCC10031, K. pneumoniae ATCC 10031 (MP-14); read-out: MIC
P. aeruginosa ATCC 27853 = details: Pseudomonas aeruginosa, ATCC27853; P. aeruginosa ATCC 27853 (MP-3); read-out: MIC
P. aeruginosa MP-7 PAO1 = details: Pseudomonas aeruginosa, read-out: MIC
[9] = tested on: P. aeruginosa MP-8 PAO1:mex (mex-oprM-deletion); details: Pseudomonas aeruginosa, PAO1
[10] = tested on: K. pneumoniae MP-548 clinical; details: Klebsiella pneumoniae, MP548CLINICAL, read-out: MIC
[11] = tested on: K. pneumoniae MP-546 Clinical-MDR; details: Klebsiella pneumoniae, read-out: MIC
[12] = tested on: A. baumannii MP-577 Clinical-AZT low; details: Acinetobacter baumannii, read-out: MIC
[13] = tested on: A. baumannii MP-576 Clinical-MDR; details: Acinetobacter baumannii, read-out: MIC

For CC[C@H]1OC(=O)[C@@](C)(F)C(=O)[C@H](C)[C@@H](O[C@@H]2OC(C)CC(N(C)C)C2O)[C@](C)(OC)C[C@@H](C)C(=O)[C@H](C)[C@H]2N(CC#CCn3cc(-c4cc(F)ccn4)nn3)C(=O)O[C@]12C (stereo partly drawn) [FSM-100563], the MIC (E. coli ATCC 25922) was 16 µg/mL (≈ 18.9 µM), the MIC [1] was over 64 µg/mL and the MIC (E. coli MP-541 clinical) was 16 µg/mL (≈ 18.9 µM). The MIC [2] was 2 µg/mL (≈ 2.37 µM), the MIC [3] was 16 µg/mL (≈ 18.9 µM) and the MIC (S. aureus ATCC 29213) was 0.06 µg/mL (≈ 0.071 µM). For the same compound, the MIC [4] was 0.06 µg/mL (≈ 0.071 µM), the MIC (S. aureus MRSA: USA100) was 32 µg/mL (≈ 37.9 µM) and the MIC (S. aureus MRSA: USA300) was 0.125 µg/mL (≈ 0.148 µM). The MIC (S. aureus USA600, GISA) was 16 µg/mL (≈ 18.9 µM), the MIC (S. aureus erm A genotype) was 16 µg/mL (≈ 18.9 µM) and the MIC (S. pneumoniae ATCC 49619) was under 0.03 µg/mL. The MIC [5] was under 0.03 µg/mL, the MIC [6] was under 0.03 µg/mL and the MIC (S. pyogenes ATCC 19615) was under 0.03 µg/mL. It also gave an MIC [7] of under 0.03 µg/mL, an MIC (E. faecalis ATCC 29212) of under 0.03 µg/mL and an MIC [8] of 2 µg/mL (≈ 2.37 µM). It also gave an MIC (A. baumannii ATCC 19606) of 8 µg/mL (≈ 9.47 µM), an MIC (K. pneumoniae ATCC 10031) of 8 µg/mL (≈ 9.47 µM) and an MIC (P. aeruginosa ATCC 27853) of 32 µg/mL (≈ 37.9 µM). It also gave an MIC (P. aeruginosa MP-7 PAO1) of 64 µg/mL (≈ 75.7 µM), an MIC [9] of 8 µg/mL (≈ 9.47 µM) and an MIC [10] of 64 µg/mL (≈ 75.7 µM). The MIC [11] was over 64 µg/mL, the MIC [12] was 32 µg/mL (≈ 37.9 µM) and the MIC [13] was over 64 µg/mL.
With CC[C@H]1OC(=O)[C@H](C)C(=O)[C@H](C)[C@@H](O[C@@H]2OC(C)CC(N(C)C)C2O)[C@](C)(OC)C[C@@H](C)C(=O)[C@H](C)[C@H]2N(CC#CCn3cc(-c4cc(F)ccn4)nn3)C(=O)O[C@]12C (stereo partly drawn) [FSM-100566] the MIC (E. coli ATCC 25922) was 32 µg/mL (≈ 38.7 µM), the MIC [1] was over 64 µg/mL and the MIC (E. coli MP-541 clinical) was 32 µg/mL (≈ 38.7 µM). It also gave an MIC [2] of 2 µg/mL (≈ 2.42 µM), an MIC [3] of over 64 µg/mL and an MIC (S. aureus ATCC 29213) of 0.06 µg/mL (≈ 0.0726 µM). The MIC [4] was 0.06 µg/mL (≈ 0.0726 µM), the MIC (S. aureus MRSA: USA100) was over 64 µg/mL and the MIC (S. aureus MRSA: USA300) was 0.125 µg/mL (≈ 0.151 µM). For the same compound, the MIC (S. aureus USA600, GISA) was 64 µg/mL (≈ 77.4 µM), the MIC (S. aureus erm A genotype) was over 64 µg/mL and the MIC (S. pneumoniae ATCC 49619) was under 0.03 µg/mL. It also gave an MIC [5] of under 0.03 µg/mL, an MIC [6] of under 0.03 µg/mL and an MIC (S. pyogenes ATCC 19615) of under 0.03 µg/mL. It also gave an MIC [7] of under 0.03 µg/mL, an MIC (E. faecalis ATCC 29212) of under 0.03 µg/mL and an MIC [8] of 8 µg/mL (≈ 9.67 µM). The MIC (A. baumannii ATCC 19606) was 16 µg/mL (≈ 19.3 µM), the MIC (K. pneumoniae ATCC 10031) was 8 µg/mL (≈ 9.67 µM) and the MIC (P. aeruginosa ATCC 27853) was 64 µg/mL (≈ 77.4 µM). The MIC (P. aeruginosa MP-7 PAO1) was over 64 µg/mL, the MIC [9] was 8 µg/mL (≈ 9.67 µM) and the MIC [10] was 64 µg/mL (≈ 77.4 µM). For the same compound, the MIC [11] was over 64 µg/mL, the MIC [12] was 64 µg/mL (≈ 77.4 µM) and the MIC [13] was over 64 µg/mL.
